# Target: T1, c-Kit (Homo sapiens, UniProt P10721)
# T1 construct: purchased Cell Signaling Technology CO
# Test: Protein kinase activity by ELISA in vitro, c-Kit
# Format: biochemical
# Conditions: concentration of 10^−7 mol/L; read-out: kinase inhibition ratio, c-Kit
# From the text: (§1) An ELISA (Enzyme-Linked Immunosorbent Sandwich Assay) procedure may be used to detect and measure the level of protein tyrosine kinase activity. Tyrosine kinases such as VEGFR-2, PDGFR-β and c-Kit etc. catalyze the phosphorylation reaction of ATP and biotin-labeled peptide substrate, which will be ceased when the kinase activity is inhibited. According to the principle of ELISA, a monoclonal antibody can react with phosphorylated substrate specially, so biotin-labeled substrate is binded to streptavidin-coated ELISA plate, and then binded to a HRP-labeled goat anti-mouse antibody. Finally TMB is added for a color reaction and the value of A450-A630 is read by ELISA plate reader. The OD value can reflect the inhibitory activity of the VEGFR-2, PDGFR-β, c-Kit tyrosine kinases etc. treated with the test compounds at the different concentrations. So, the assay may be used to measure the inhibition ratio of the compounds for the tyrosine kinase activity. Similar assays can be designed along the same lines for any PK using techniques well known in the art.
# as §1, with “Tyrosine” for “An ELISA (Enzyme-Linked Immunosorbent Sandwich Assay) procedure may be used to detect and measure the level of protein tyrosine kinase activity. Tyrosine”, “PDGFR-β” for “PDGFR-β,”, “kinases” for “kinases etc.”
# VEGF Receptor 2, PDGF Receptor-beta and c-kit kinase assay kit (include kinase, 1.25M DTT, substrate peptide, 10 mM ATP, P-Tyr-100 Mouse antibody, 4×HTScan tyrosine kinase buffer), Cell Signaling Technology CO.; HRP labeled goat anti mouse IgG, Protein Tech CO.; TMB, Pierce CO.; Streptavidin Microtitration Plate, Greiner Bio-one CO.; Infinite M200 Reader, Tecan CO.
# 1.2.1 Immediately transfer enzyme from −80° C. to ice. Allow enzyme to thaw on ice then at 4° C. and centrifugate transiently to the bottom of centrifuge tube, then lay back on ice quickly
# 1.2.2 Add 10 μl of DTT (1.25 M) to 2.5 ml of 4×HTScan tyrosine kinase buffer (240 mM HEPES pH 7.5, 20 mM MgCl2, 20 mM MnCl2, 12 μM Na3VO4). Transfer 0.6 ml of DTT/Kinase buffer to each enzyme tube to make 4× reaction Cocktail. Incubate 12.5 μl of the 4× reaction cocktail with 12.5 μl/well prediluted compound of interest for 5 minutes at room temperature, and set blank control, free-enzyme control, negative control and positive control. 1.2.3 Add 10 μl 10 mM ATP to 1.25 ml 6 μM substrate peptide. Dilute the mixture with dH20 to 2.5 ml to make 2×ATP/substrate cocktail. Add 25 μl of 2×ATP/substrate cocktail to 25 μl/well preincubated reaction cocktail/compound. Incubate reaction plate at room temperature for 30 minutes. 1.2.4 Add 50 μl/well stop Buffer (50 mM EDTA, pH 8) to stop the reaction. Transfer 25 μl of each reaction and 75 μl dH2O/well to a 96-well streptavidin coated plate and incubate at room temperature for 60 minutes. Wash three times with 200 μl/well PBS/T(1×PBS, 0.05% Tween-20). 1.2.5 Dilute primary antibody, Phospho-Tyrosine mAb (P-Tyr-100), 1:500 in PBS/T with 1% BSA. Add 100 μl/well primary antibody. Incubate at room temperature for 60 minutes. Wash three times with 200 μl/well PBS/T(1×PBS, 0.05% Tween-20). 1.2.6 Prepare appropriate dilution of HRP labeled secondary antibody, 1:500 in PBS/T with 1% BSA. Add 100 μl/well secondary antibody solution. Incubate at room temperature for 30 minutes. […]
# T1 sequence (P10721 26-976): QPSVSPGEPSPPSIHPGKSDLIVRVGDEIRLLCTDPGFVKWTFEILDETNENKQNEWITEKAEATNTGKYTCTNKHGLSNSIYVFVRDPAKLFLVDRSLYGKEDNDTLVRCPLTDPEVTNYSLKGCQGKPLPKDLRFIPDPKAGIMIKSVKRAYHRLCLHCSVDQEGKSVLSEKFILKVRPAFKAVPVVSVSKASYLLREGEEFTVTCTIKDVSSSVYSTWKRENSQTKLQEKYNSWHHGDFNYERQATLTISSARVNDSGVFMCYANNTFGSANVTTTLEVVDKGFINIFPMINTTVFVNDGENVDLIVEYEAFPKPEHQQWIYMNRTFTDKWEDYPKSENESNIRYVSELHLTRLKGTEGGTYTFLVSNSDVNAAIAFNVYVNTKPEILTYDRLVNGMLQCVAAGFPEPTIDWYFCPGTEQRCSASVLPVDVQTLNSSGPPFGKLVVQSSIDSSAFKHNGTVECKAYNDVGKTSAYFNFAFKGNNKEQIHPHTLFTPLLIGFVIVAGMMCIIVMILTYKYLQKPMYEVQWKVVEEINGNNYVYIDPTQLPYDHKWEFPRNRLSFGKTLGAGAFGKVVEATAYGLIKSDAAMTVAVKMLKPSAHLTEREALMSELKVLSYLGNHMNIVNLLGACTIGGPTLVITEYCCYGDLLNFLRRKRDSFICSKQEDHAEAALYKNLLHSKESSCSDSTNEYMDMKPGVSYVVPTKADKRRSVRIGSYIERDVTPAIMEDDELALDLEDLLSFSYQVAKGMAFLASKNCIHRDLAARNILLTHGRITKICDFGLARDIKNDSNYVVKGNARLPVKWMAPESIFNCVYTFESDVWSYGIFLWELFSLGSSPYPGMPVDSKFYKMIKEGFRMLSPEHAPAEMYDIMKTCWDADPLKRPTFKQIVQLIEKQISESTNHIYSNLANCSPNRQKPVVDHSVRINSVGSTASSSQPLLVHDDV
row,inhibition at 0.1 µM,SMILES
1,60%,"CCN(CC)CCNC(=O)c1c(C)[nH]c2c1CCC/C2=C1/C(=O)Nc2ccc(C)cc21 [I-4, N-(2-(diethylamino)ethyl)-2-methyl-7-[1,2-dihydro-5-methyl-2-oxo-3H-indol-(Z)-3-ylidene]-4,5,6,7-tetrahydro-1H-indole-3-carboxamide]"
2,77%,"Cc1[nH]c2c(c1C(=O)NCCN(C)C)CCC/C2=C1/C(=O)Nc2ccc(F)cc21 [I-6, N-(2-(dimethylamino)ethyl)-2-methyl-7-[1,2-dihydro-5-fluoro-2-oxo-3H-indol-(Z)-3-ylidene]-4,5,6,7-tetrahydro-1H-indole-3-carboxamide]"
3,77%,"Cc1[nH]c2c(c1C(=O)NCCO)CCC/C2=C1/C(=O)Nc2ccccc21 [I-8, N-(2-hydroxyethyl)-2-methyl-7-[1,2-dihydro-2-oxo-3H-indol-(Z)-3-ylidene]-4,5,6,7-tetrahydro-1H-indole-3-carboxamide]"
4,43%,"CCN(CC)CCNC(=O)c1c(C)[nH]c2c1CCC/C2=C1/C(=O)Nc2ccc(Cl)cc21 [I-3, N-(2-(diethylamino)ethyl)-2-methyl-7-[1,2-dihydro-5-chloro-2-oxo-3H-indol-(Z)-3-ylidene]-4,5,6,7-tetrahydro-1H-indole-3-carboxamide]"
5,46%,"CCN(CC)CCNC(=O)c1c(C)[nH]c2c1CCC/C2=C1/C(=O)Nc2ccc(F)cc21 [I-2, N-(2-(diethylamino)ethyl)-2-methyl-7-[1,2-dihydro-5-fluoro-2-oxo-3H-indol-(Z)-3-ylidene]-4,5,6,7-tetrahydro-1H-indole-3-carboxamide]"
6,73%,"CCN(CC)CC(O)CNC(=O)c1c(C)[nH]c2c1CCC/C2=C1/C(=O)Nc2ccccc21 (stereo not drawn) [I-63, N-(3-(diethylamino)-2-hydroxypropyl)-2-methyl-7-[1,2-dihydro-2-oxo-3H-indol-(Z)-3-ylidene]-4,5,6,7-tetrahydro-1H-indole-3-carboxamide]"
7,76%,"Cc1[nH]c2c(c1C(=O)NCC(O)CN1CCCC1)CCC/C2=C1/C(=O)Nc2ccccc21 (stereo not drawn) [I-70, N-(2-hydroxy-3-(pyrrolidin-1-yl)propyl)-2-methyl-7-[1,2-dihydro-2-oxo-3H-indol-(Z)-3-ylidene]-4,5,6,7-tetrahydro-1H-indole-3-carboxamide]"
8,67%,"CCN(CC)CCNC(=O)c1c(C)[nH]c2c1CCC/C2=C1/C(=O)Nc2ccccc21 [I-5, N-(2-(diethylamino)ethyl)-2-methyl-7-[1,2-dihydro-2-oxo-3H-indol-(Z)-3-ylidene]-4,5,6,7-tetrahydro-1H-indole-3-carboxamide]"
9,74%,"Cc1[nH]c2c(c1C(=O)NCCCN(C)C)CCC/C2=C1/C(=O)Nc2ccc(Cl)cc21 [I-7, N-(3-(dimethylamino)propyl)-2-methyl-7-[1,2-dihydro-5-chloro-2-oxo-3H-indol-(Z)-3-ylidene]-4,5,6,7-tetrahydro-1H-indole-3-carboxamide]"
